Measured values from ChEMBL document CHEMBL3044974, “Design, synthesis, insecticidal activity and structure-activity relationship of 3,3-dichloro-2-propenyloxy-containing phthalic acid diamide structures” (2012).

tested on: Plutella xylostella; assay: Insecticidal activity against Plutella xylostella (diamondback moth) third-instar larvae reared on 100 ug/mL compound pre-treated cabbage leaf disks assessed as insect mortality measured after 3 days post compound treatment by leaf dipping method; type: functional

| SMILES | mortality |
| --- | --- |
| CC(C)(CS(C)(=O)=O)NC(=O)c1c(I)cccc1C(=O)Nc1ccc(OCC=C(Cl)Cl)cc1 | 60% |
| CC(C)(CS(C)(=O)=O)NC(=O)c1c(I)cccc1C(=O)Nc1ccc(OCC=C(Cl)Cl)cc1Cl | 100% |
| CC(C)(CS(C)(=O)=O)NC(=O)c1c(I)cccc1C(=O)Nc1ccc(OCC=C(Cl)Cl)cc1F | 90% |
| CC(C)(CS(C)(=O)=O)NC(=O)c1c(I)cccc1C(=O)Nc1ccc(OCC=C(Cl)Cl)cc1C(F)(F)F | 69% |
| Cc1cc(OCC=C(Cl)Cl)ccc1NC(=O)c1cccc(I)c1C(=O)NC(C)(C)CS(C)(=O)=O | 81% |
| CC(C)(CS(C)(=O)=O)NC(=O)c1c(I)cccc1C(=O)Nc1ccc(OCC=C(Cl)Cl)c(Cl)c1 | 48% |
| CC(C)(CS(C)(=O)=O)NC(=O)c1c(I)cccc1C(=O)Nc1ccc(OCC=C(Cl)Cl)c(C(F)(F)F)c1 | 0% |
| Cc1cc(NC(=O)c2cccc(I)c2C(=O)NC(C)(C)CS(C)(=O)=O)ccc1OCC=C(Cl)Cl | 19% |
| CSCC(C)(C)NC(=O)c1c(I)cccc1C(=O)Nc1ccc(OCC=C(Cl)Cl)c(C(F)(F)F)c1 | 0% |
| CSCC(C)(C)NC(=O)c1c(I)cccc1C(=O)Nc1ccc(OCC=C(Cl)Cl)c(C)c1 | 10% |
| COCC(C)(C)NC(=O)c1c(I)cccc1C(=O)Nc1ccc(OCC=C(Cl)Cl)cc1Cl | 63% |
| COCC(C)(C)NC(=O)c1c(I)cccc1C(=O)Nc1ccc(OCC=C(Cl)Cl)cc1F | 61% |
| COCC(C)(C)NC(=O)c1c(I)cccc1C(=O)Nc1ccc(OCC=C(Cl)Cl)cc1C(F)(F)F | 44% |
| COCC(C)(C)NC(=O)c1c(I)cccc1C(=O)Nc1ccc(OCC=C(Cl)Cl)cc1C | 72% |
| COCC(C)(C)NC(=O)c1c(I)cccc1C(=O)Nc1ccc(OCC=C(Cl)Cl)c(Cl)c1 | 61% |
| COCC(C)(C)NC(=O)c1c(I)cccc1C(=O)Nc1ccc(OCC=C(Cl)Cl)c(C(F)(F)F)c1 | 44% |
| COCC(C)(C)NC(=O)c1c(I)cccc1C(=O)Nc1ccc(OCC=C(Cl)Cl)c(C)c1 | 70% |
| CC(C)(C)NC(=O)c1c(I)cccc1C(=O)Nc1ccc(OCC=C(Cl)Cl)cc1 | 78% |
| CC(C)(C)NC(=O)c1c(I)cccc1C(=O)Nc1ccc(OCC=C(Cl)Cl)cc1Cl | 100% |
| CC(C)(C)NC(=O)c1c(I)cccc1C(=O)Nc1ccc(OCC=C(Cl)Cl)cc1F | 100% |
| CC(C)(C)NC(=O)c1c(I)cccc1C(=O)Nc1ccc(OCC=C(Cl)Cl)cc1C(F)(F)F | 90% |
| Cc1cc(OCC=C(Cl)Cl)ccc1NC(=O)c1cccc(I)c1C(=O)NC(C)(C)C | 100% |
| CC(C)(C)NC(=O)c1c(I)cccc1C(=O)Nc1ccc(OCC=C(Cl)Cl)c(Cl)c1 | 76% |
| CC(C)(C)NC(=O)c1c(I)cccc1C(=O)Nc1ccc(OCC=C(Cl)Cl)c(C(F)(F)F)c1 | 8% |
| Cc1cc(NC(=O)c2cccc(I)c2C(=O)NC(C)(C)C)ccc1OCC=C(Cl)Cl | 25% |
| CSCC(C)(C)NC(=O)c1c(I)cccc1C(=O)Nc1ccc(OCC=C(Cl)Cl)cc1 | 45% |
| CSCC(C)(C)NC(=O)c1c(I)cccc1C(=O)Nc1ccc(OCC=C(Cl)Cl)cc1F | 100% |
| CSCC(C)(C)NC(=O)c1c(I)cccc1C(=O)Nc1ccc(OCC=C(Cl)Cl)cc1C(F)(F)F | 62% |
| CSCC(C)(C)NC(=O)c1c(I)cccc1C(=O)Nc1ccc(OCC=C(Cl)Cl)cc1C | 95% |
| CSCC(C)(C)NC(=O)c1c(I)cccc1C(=O)Nc1ccc(OCC=C(Cl)Cl)c(Cl)c1 | 81% |

tested on: Plutella xylostella; assay: Insecticidal activity against Plutella xylostella (diamondback moth) third-instar larvae reared on 10 ug/mL compound pre-treated cabbage leaf disks assessed as insect mortality measured after 2 days post compound treatment by leaf dipping method; type: functional

| SMILES | mortality |
| --- | --- |
| CC(C)(CS(C)(=O)=O)NC(=O)c1c(I)cccc1C(=O)Nc1ccc(OCC=C(Cl)Cl)cc1Cl | 0% |
| CC(C)(C)NC(=O)c1c(I)cccc1C(=O)Nc1ccc(OCC=C(Cl)Cl)cc1Cl | 65% |
| CC(C)(C)NC(=O)c1c(I)cccc1C(=O)Nc1ccc(OCC=C(Cl)Cl)cc1F | 0% |
| Cc1cc(OCC=C(Cl)Cl)ccc1NC(=O)c1cccc(I)c1C(=O)NC(C)(C)C | 32% |
| CSCC(C)(C)NC(=O)c1c(I)cccc1C(=O)Nc1ccc(OCC=C(Cl)Cl)cc1Cl | 0% |
| CSCC(C)(C)NC(=O)c1c(I)cccc1C(=O)Nc1ccc(OCC=C(Cl)Cl)cc1F | 0% |
| CSCC(C)(C)NC(=O)c1c(I)cccc1C(=O)Nc1ccc(OCC=C(Cl)Cl)cc1C | 10% |
| Cc1cc(C(F)(C(F)(F)F)C(F)(F)F)ccc1NC(=O)c1cccc(I)c1C(=O)NC(C)(C)CS(C)(=O)=O [FLUBENDIAMIDE] | 67% |
| FC(F)(F)c1ccc(OCCCOc2c(Cl)cc(OCC=C(Cl)Cl)cc2Cl)nc1 [PYRIDALYL] | 13% |

tested on: Plutella xylostella; assay: Insecticidal activity against Plutella xylostella (diamondback moth) third-instar larvae reared on 10 ug/mL compound pre-treated cabbage leaf disks assessed as insect mortality measured after 3 days post compound treatment by leaf dipping method; type: functional

| SMILES | mortality |
| --- | --- |
| CC(C)(CS(C)(=O)=O)NC(=O)c1c(I)cccc1C(=O)Nc1ccc(OCC=C(Cl)Cl)cc1Cl | 20% |
| CC(C)(C)NC(=O)c1c(I)cccc1C(=O)Nc1ccc(OCC=C(Cl)Cl)cc1Cl | 91% |
| CC(C)(C)NC(=O)c1c(I)cccc1C(=O)Nc1ccc(OCC=C(Cl)Cl)cc1F | 0% |
| Cc1cc(OCC=C(Cl)Cl)ccc1NC(=O)c1cccc(I)c1C(=O)NC(C)(C)C | 58% |
| CSCC(C)(C)NC(=O)c1c(I)cccc1C(=O)Nc1ccc(OCC=C(Cl)Cl)cc1Cl | 43% |
| CSCC(C)(C)NC(=O)c1c(I)cccc1C(=O)Nc1ccc(OCC=C(Cl)Cl)cc1F | 0% |
| CSCC(C)(C)NC(=O)c1c(I)cccc1C(=O)Nc1ccc(OCC=C(Cl)Cl)cc1C | 19% |
| Cc1cc(C(F)(C(F)(F)F)C(F)(F)F)ccc1NC(=O)c1cccc(I)c1C(=O)NC(C)(C)CS(C)(=O)=O [FLUBENDIAMIDE] | 100% |
| FC(F)(F)c1ccc(OCCCOc2c(Cl)cc(OCC=C(Cl)Cl)cc2Cl)nc1 [PYRIDALYL] | 37% |

tested on: Plutella xylostella; assay: Insecticidal activity against Plutella xylostella (diamondback moth) third-instar larvae reared on 100 ug/mL compound pre-treated cabbage leaf disks assessed as insect mortality measured after 2 days post compound treatment by leaf dipping method; type: functional

| SMILES | mortality |
| --- | --- |
| CC(C)(CS(C)(=O)=O)NC(=O)c1c(I)cccc1C(=O)Nc1ccc(OCC=C(Cl)Cl)cc1 | 15% |
| CC(C)(CS(C)(=O)=O)NC(=O)c1c(I)cccc1C(=O)Nc1ccc(OCC=C(Cl)Cl)cc1Cl | 75% |
| CC(C)(CS(C)(=O)=O)NC(=O)c1c(I)cccc1C(=O)Nc1ccc(OCC=C(Cl)Cl)cc1F | 55% |
| CC(C)(CS(C)(=O)=O)NC(=O)c1c(I)cccc1C(=O)Nc1ccc(OCC=C(Cl)Cl)cc1C(F)(F)F | 25% |
| Cc1cc(OCC=C(Cl)Cl)ccc1NC(=O)c1cccc(I)c1C(=O)NC(C)(C)CS(C)(=O)=O | 76% |
| CC(C)(CS(C)(=O)=O)NC(=O)c1c(I)cccc1C(=O)Nc1ccc(OCC=C(Cl)Cl)c(Cl)c1 | 24% |
| CC(C)(CS(C)(=O)=O)NC(=O)c1c(I)cccc1C(=O)Nc1ccc(OCC=C(Cl)Cl)c(C(F)(F)F)c1 | 0% |
| Cc1cc(NC(=O)c2cccc(I)c2C(=O)NC(C)(C)CS(C)(=O)=O)ccc1OCC=C(Cl)Cl | 8% |
| CSCC(C)(C)NC(=O)c1c(I)cccc1C(=O)Nc1ccc(OCC=C(Cl)Cl)c(C(F)(F)F)c1 | 0% |
| CSCC(C)(C)NC(=O)c1c(I)cccc1C(=O)Nc1ccc(OCC=C(Cl)Cl)c(C)c1 | 0% |
| COCC(C)(C)NC(=O)c1c(I)cccc1C(=O)Nc1ccc(OCC=C(Cl)Cl)cc1Cl | 54% |
| COCC(C)(C)NC(=O)c1c(I)cccc1C(=O)Nc1ccc(OCC=C(Cl)Cl)cc1F | 47% |
| COCC(C)(C)NC(=O)c1c(I)cccc1C(=O)Nc1ccc(OCC=C(Cl)Cl)cc1C(F)(F)F | 32% |
| COCC(C)(C)NC(=O)c1c(I)cccc1C(=O)Nc1ccc(OCC=C(Cl)Cl)cc1C | 47% |
| COCC(C)(C)NC(=O)c1c(I)cccc1C(=O)Nc1ccc(OCC=C(Cl)Cl)c(Cl)c1 | 42% |
| COCC(C)(C)NC(=O)c1c(I)cccc1C(=O)Nc1ccc(OCC=C(Cl)Cl)c(C(F)(F)F)c1 | 42% |
| COCC(C)(C)NC(=O)c1c(I)cccc1C(=O)Nc1ccc(OCC=C(Cl)Cl)c(C)c1 | 42% |

| SMILES | mortality |
| --- | --- |
| CC(C)(C)NC(=O)c1c(I)cccc1C(=O)Nc1ccc(OCC=C(Cl)Cl)cc1 | 39% |
| CC(C)(C)NC(=O)c1c(I)cccc1C(=O)Nc1ccc(OCC=C(Cl)Cl)cc1Cl | 90% |
| CC(C)(C)NC(=O)c1c(I)cccc1C(=O)Nc1ccc(OCC=C(Cl)Cl)cc1F | 81% |
| CC(C)(C)NC(=O)c1c(I)cccc1C(=O)Nc1ccc(OCC=C(Cl)Cl)cc1C(F)(F)F | 65% |
| Cc1cc(OCC=C(Cl)Cl)ccc1NC(=O)c1cccc(I)c1C(=O)NC(C)(C)C | 69% |
| CC(C)(C)NC(=O)c1c(I)cccc1C(=O)Nc1ccc(OCC=C(Cl)Cl)c(Cl)c1 | 57% |
| CC(C)(C)NC(=O)c1c(I)cccc1C(=O)Nc1ccc(OCC=C(Cl)Cl)c(C(F)(F)F)c1 | 0% |
| Cc1cc(NC(=O)c2cccc(I)c2C(=O)NC(C)(C)C)ccc1OCC=C(Cl)Cl | 0% |
| CSCC(C)(C)NC(=O)c1c(I)cccc1C(=O)Nc1ccc(OCC=C(Cl)Cl)cc1 | 15% |
| CSCC(C)(C)NC(=O)c1c(I)cccc1C(=O)Nc1ccc(OCC=C(Cl)Cl)cc1Cl | 100% |
| CSCC(C)(C)NC(=O)c1c(I)cccc1C(=O)Nc1ccc(OCC=C(Cl)Cl)cc1F | 58% |
| CSCC(C)(C)NC(=O)c1c(I)cccc1C(=O)Nc1ccc(OCC=C(Cl)Cl)cc1C(F)(F)F | 57% |
| CSCC(C)(C)NC(=O)c1c(I)cccc1C(=O)Nc1ccc(OCC=C(Cl)Cl)cc1C | 90% |
| CSCC(C)(C)NC(=O)c1c(I)cccc1C(=O)Nc1ccc(OCC=C(Cl)Cl)c(Cl)c1 | 38% |
| Cc1cc(C(F)(C(F)(F)F)C(F)(F)F)ccc1NC(=O)c1cccc(I)c1C(=O)NC(C)(C)CS(C)(=O)=O [FLUBENDIAMIDE] | 100% |
| FC(F)(F)c1ccc(OCCCOc2c(Cl)cc(OCC=C(Cl)Cl)cc2Cl)nc1 [PYRIDALYL] | 100% |
